The record followed here is patent US20080300298A1, “Honokiol Derivates For the Treatment of Proliferative Disorders” (priority 2005, published 2008).

Assay [1] deals with MM.1S cells. Description: TUNEL assay. It counts as cell-based, human. The settings on record: 10 ug/ml, 48 h. As for the experimental part:
(§1) Assessment of HNK-induced cytotoxicity against patient MM cells: […] A CD38^high fraction enriched for MM cells was determined in side and forward scatter panel in each case. The expression of CD138 on gated cells was also evaluated. After HNK-treatment for 48 h, cells were harvested and percentage of CD38^high cells with or without HNK-treatment was evaluated. Cell cycle analysis: MM cells cultured with HNK were harvested, fixed with 70% ethanol, and pretreated with 250 μg/mL of RNAse (Sigma, St Louis, Mo.). Cells were stained with propidium iodide (PI; 50 μg/mL; Sigma, St Louis, Mo.), and cell cycle profile was determined by using the program M software on an EPICS XL flow cytometer (Beckman Coulter, Hialeah, Fla.). […] Fluorescence intensity of TUNEL and APO 2.7 staining was determined using on EPICS XL flow cytometer. Cytotoxicity was determined by trypan blue exclusion assay. […] Cell growth and induction of apoptosis were determined both by colorimetric assay and now cytometric detection of APO2.7 after 48 h treatment. […] Proliferation of MM cells was then assessed by [^3H]-thymidine uptake. […] DNA synthesis was measured by [^3H]-thymidine uptake. […] Angiogenesis assay: The anti-angiogenic effect of HNK was determined using an In Vitro Angiogenesis Assay Kit (Chemicon, Temecula, Calif.). […] After 6 h, tube formation by endothelial cells was evaluated. […]

The test system of assay [2] is RPM18226 cells. Nature of the assay: TUNEL assay. In kind it is cell-based, human. The settings on record: RPM18226, 10 ug/ml, 48 h. The protocol: as §1
Assay [3] relates to STAT-3, ERK and Akt phosphorylation in MM.1S cells. Description: Western blotting of IL-6 / IGF-1 growth signaling. It counts as cell-based, human. Particulars: 10 ug/ml HNK for 3 and 6 h, then IL-6 (10 ng/ml) or IGF-1 (25 ng/ml).
Assay [4] concerns AMP kinase in PC3 cells. Nature of the assay: AMPK activation (Western blot). It counts as cell-based, human. Particulars: normoxic and hypoxic conditions. The protocol:
Bharti, A. C. et al (2004) Blood 103, 3175-3184; Arbiser, J. L et al (1998) Mol. Med. 4, 376-383; Woods, A. et al (2003) Current Biology 13, 2004-2008; Shaw, R. J. et al (2004) PNAS 101, 3329-3335; Buzzai, M. et al (2005) Oncogene 24, 4165-4173). […] PC3 cells were treated with honokiol in normoxia (left) or hypoxia (right). In both cases, HIF-1a induction is dose dependent, and in the case of hypoxia, at least additive. Compounds can be tested on the p53 deficient PC3 human prostate cancer cell line, to see whether treatment results in activation of AMPK as in FIG. 20. PC3 cells can be treated with compound or vehicle for 24 hours, then proteins harvested and analyzed by Western blot for phosphorylation of the alpha subunit of AMPK, a marker of AMPK activation. In addition, phosphorylation of a substrate of AMPK, acetyl CoA carboxylase (ACC) can be monitored by Western blot.

In assay [5] the test system is KBM-5 cells. Description: Live and dead assay. It counts as cell-based, human. The settings on record: KBM-5, TNF 1 nM with honokiol (10 mM printed); TNF alone 5%. The protocol: (§2) (D) depicts that honokiol enhances TNF-induced cell death.
Live and dead assay. The Live and Dead assay (Molecular Probes), which determines intracellular esterase activity and plasma membrane integrity, was used to measure apoptosis. […] It also uses the […] (red fluorescence), which can enter cells only through damaged membranes and bind to nucleic acids but is excluded by the intact plasma membrane of live cells. Briefly, 1×10^5 cells were incubated with […] honokiol for 24 h and then treated with 1 nM TNF for 16 h at 37° C. Cells were stained with the Live and Dead reagent (5 mM ethidium homodimer, 5 mM calcein-AM) and then incubated at 37° C. for 30 min. Cells were analyzed under a fluorescence microscope (Labophot-2, Nikon, Tokyo, Japan).
(§3) By using caspase-activated PARP cleavage, it was shown that the enhanced cytotoxicity was due to apoptosis. TNF-induced PARP cleavage was enhanced in the honokiol-treated cells (FIG. 26C).

Assay [6] concerns KBM-5 cells. Description: Annexin V assay. In kind it is cell-based, human. The settings on record: KBM-5, honokiol 12 h then 1 nM TNF 16 h.
Text: as §2
Annexin V assay. One of the early indicators of apoptosis is the rapid translocation and accumulation of the membrane phospholipid phosphatidylserine from the cell's cytoplasmic interface to the extracellular surface. This loss of membrane asymmetry can be detected using the binding properties of annexin V. Annexin V antibody conjugated with the fluorescent dye FITC was used to detect apoptosis. Briefly, 1×10^6 cells were pretreated with […] honokiol for 12 h, treated with 1 nM TNF for 16 h, and then subjected to annexin V staining. Cells were washed, stained with FITC-conjugated anti-annexin V antibody, and then analyzed with a flow cytometer (FACSCalibur; BD Biosciences).
as §3

The test system of assay [7] is lymph node cultures. Nature of the assay: antigen recall lymph node cultures from treated mice. In kind it is in vivo, C57BL/6 or mCD40-LMP1 Tg mice. Particulars: honokiol 3 mg/day, day 21-70 post-immunization. The protocol:
Mice were assessed 70 days post-immunization with CII/CF or CFA only (or naïve). Some mice received honokiol (3 mg/day) from day 21-70 post-immunization.

SMILES strings stand for the structures.

In the case of `C=CCc1ccc(O)c(-c2ccc(O)c(CC=C)c2)c1` [HNK, Honokiol], the TUNEL positive cells is recorded as 38.2% in assay [1] and 41.5% in assay [2]. Moreover, the “phosphorylation induced by IL-6 and IGF-1” value in assay [3] is “significantly reduced phosphorylation of STAT-3, ERK and Akt induced by IL-6, as well as ERK and Akt induced by IGF-1”. Also, the “phosphorylation (activation) of AMP kinase” value in assay [4] was “increased phosphorylation (activation) of AMP kinase”. Moreover, in assay [5], the “TNF-induced apoptosis (Live/Dead assay)” value is 65%. Besides, the “TNF-induced early apoptosis (annexin V staining)” value in assay [6] is reported as “quite effective in enhancing the effects of TNF”. The “proliferation and cytokine production of antigen recall lymph node cultures” value in assay [7] is “decreased proliferation and IFN-g production, with unaltered IL-10 production”.
